This is an account of results in PubChem BioAssay AID1259411 (Chemical Carcinogenesis Research Information System (CCRIS), 2018).

The source made the active and inactive calls. No rule for the calls is given here.

The data set relates to rodent carcinogenicity bioassays, tumor incidence. As to the kind of experiment: CCRIS carcinogenicity studies. In short, it runs like this:
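NCI-built, expert-reviewed records of carcinogenicity and related test outcomes (mutagenicity, tumor promotion/inhibition) compiled from published and report sources, historical span 1985-2011, not updated.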

With `C[C@](N)(Cc1ccc(O)c(O)c1)C(=O)O`, the carcinogen call is “inactive; negative” (Species: MOUSE, Strain/Sex: B6C3F1/FEMALE, Route: ORAL, Dose: 0, 6300, 12500 PPM IN FEED FOR 103 WK (STUDY DURATION: 104 WK), Dose: 0, 6300, 12500 PPM IN FEED FOR 103 WK (STUDY DURATION: 104 WK)); “equivocal” (Species: MOUSE, Strain/Sex: B6C3F1/MALE, Route: ORAL, Dose: 0, 6300, 12500 PPM IN FEED FOR 103 WK (STUDY DURATION: 104 WK), Dose: 0, 6300, 12500 PPM IN FEED FOR 103 WK (STUDY DURATION: 104 WK), Tumor Site: Type of Lesion: KIDNEY: RENAL TUBULAR CELL ADENOMA OR ADENOCARCINOMA); “inactive; negative” (Species: RAT, Strain/Sex: F344/FEMALE, Route: ORAL, Dose: 0, 3100, 6300 PPM IN FEED FOR 103 WK (STUDY DURATION: 104 WK), Dose: 0, 3100, 6300 PPM IN FEED FOR 103 WK (STUDY DURATION: 104 WK)); “inactive; negative” (Species: RAT, Strain/Sex: F344/MALE, Route: ORAL, Dose: 0, 3100, 6300 PPM IN FEED FOR 103 WK (STUDY DURATION: 104 WK), Dose: 0, 3100, 6300 PPM IN FEED FOR 103 WK (STUDY DURATION: 104 WK)).

As for `O=C(O)c1nn(Cc2ccc(Cl)cc2Cl)c2ccccc12`, the carcinogen call runs as follows: (Species: RAT, Strain/Sex: SPRAGUE-DAWLEY/FEMALE, Route: ORAL, Dose: 0, 20, 60, 180 MG/KG/D IN DIET FOR 2 YR (STUDY DURATION: 2 YR), Dose: 0, 20, 60, 180 MG/KG/D IN DIET FOR 2 YR (STUDY DURATION: 2 YR)) “inactive; negative”; (Species: RAT, Strain/Sex: SPRAGUE-DAWLEY/MALE, Route: ORAL, Dose: 0, 20, 60, 180 MG/KG/D IN DIET FOR 2 YR (STUDY DURATION: 2 YR), Dose: 0, 20, 60, 180 MG/KG/D IN DIET FOR 2 YR (STUDY DURATION: 2 YR)) “inactive; negative”.

Take `CCCCCCOc1cc2c(c3ccc4ccccc4c13)CCC2=O`: the carcinogen call (Species: MOUSE, Strain/Sex: TO/MALE, FEMALE, Route: DERMAL, Dose: 0, 50 UG (10 µL OF A 0.5% W/V TOLUENE SOLUTION) 2/WK FOR 70 WK (STUDY DURATION: 70 WK)) was “inactive; negative”.

Turning to `COC(=O)C1=C(C)NC(C)=C(C(=O)OCCc2ccc(N3CCN(C(c4ccccc4)c4ccccc4)CC3)cc2)C1c1cccc([N+](=O)[O-])c1` (stereo not given), the carcinogen call was “inactive; negative” (Species: MOUSE, Strain/Sex: B6C3F1/FEMALE, Route: ORAL, Dose: 0, 30, 90, 300 PPM IN DIET FOR 18 MO (STUDY DURATION: 18 MO), Dose: 0, 30, 90, 300 PPM IN DIET FOR 18 MO (STUDY DURATION: 18 MO)); “inactive; negative” (Species: MOUSE, Strain/Sex: B6C3F1/MALE, Route: ORAL, Dose: 0, 30, 90, 300 PPM IN DIET FOR 18 MO (STUDY DURATION: 18 MO), Dose: 0, 30, 90, 300 PPM IN DIET FOR 18 MO (STUDY DURATION: 18 MO)); “inactive; negative” (Species: RAT, Strain/Sex: F344/FEMALE, Route: ORAL, Dose: 0, 30, 90, 300 PPM IN DIET FOR 24 MO (STUDY DURATION: 24 MO), Dose: 0, 30, 90, 300 PPM IN DIET FOR 24 MO (STUDY DURATION: 24 MO)); “inactive; negative” (Species: RAT, Strain/Sex: F344/MALE, Route: ORAL, Dose: 0, 30, 90, 300 PPM IN DIET FOR 24 MO (STUDY DURATION: 24 MO), Dose: 0, 30, 90, 300 PPM IN DIET FOR 24 MO (STUDY DURATION: 24 MO)).

As to `C=CC(=O)OC(C)COCC(C)OCC(C)OC(=O)C=C` (stereo not given), where the note is “Species: MOUSE, Strain/Sex: TG.AC/FEMALE, Route: DERMAL, Dose: 0, 1, 5, 10 UMOL IN 200 µL ACETONE 3/WK FOR 20 WK (STUDY DURATION: 20 WK), Dose: 0, 1, 5, 10 UMOL IN 200 µL ACETONE 3/WK FOR 20 WK (STUDY DURATION: 20 WK), Tumor Site: Type of Lesion: SKIN: PAPILLOMA”, the carcinogen call was “active; positive”.

Consider `Cc1cc2c(c3ccc4ccccc4c13)[C@@H]1O[C@@H]1[C@H](O)[C@H]2O`, for which the carcinogen call reads like this: (Species: MOUSE, Strain/Sex: ICR/FEMALE, Route: INTRAPERITONEAL, Dose: 8 NMOL/5 µL DMSO ON DAY 1, 16 NMOL/10 µL ON DAY 8, AND 32 NMOL/20 µL ON DAY 15 OF AGE (STUDY DURATION: 35 WK)) “inactive; negative”; (Species: MOUSE, Strain/Sex: ICR/MALE, Route: INTRAPERITONEAL, Dose: 8 NMOL/5 µL DMSO ON DAY 1, 16 NMOL/10 µL ON DAY 8, AND 32 NMOL/20 µL ON DAY 15 OF AGE (STUDY DURATION: 35 WK), Tumor Site: Type of Lesion: LUNG: TUMORS) “active; positive”.

Turning to `Cc1noc(NS(=O)(=O)c2ccc(N)cc2)c1C`, the carcinogen call was “inactive; negative” (Species: MOUSE, Strain/Sex: B6C3F1/FEMALE, Route: GAVAGE, Dose: 0, 500, 2000 MG/KG IN 0.5% AQ CMC, Dose: 0, 500, 2000 MG/KG IN 0.5% AQ CMC); “inactive; negative” (Species: MOUSE, Strain/Sex: B6C3F1/MALE, Route: GAVAGE, Dose: 0, 500, 2000 MG/KG IN 0.5% AQ CMC, Dose: 0, 500, 2000 MG/KG IN 0.5% AQ CMC); “inactive; negative” (Species: RAT, Strain/Sex: F344/FEMALE, Route: GAVAGE, Dose: 0, 100, 400 MG/KG IN 0.5% AQ CMC, Dose: 0, 100, 400 MG/KG IN 0.5% AQ CMC); “inactive; negative” (Species: RAT, Strain/Sex: F344/MALE, Route: GAVAGE, Dose: 0, 100, 400 MG/KG IN 0.5% AQ CMC, Dose: 0, 100, 400 MG/KG IN 0.5% AQ CMC).

As for `c1ccc2c(c1)ccc1nc3ccc4ccccc4c3cc12`, the carcinogen call was “active; positive” (Species: MOUSE, Route: DERMAL, Tumor Site: Type of Lesion: INTEGUMENTARY SYSTEM (SKIN)); “active; positive” (Species: MOUSE, Route: SUBCUTANEOUS, Tumor Site: Type of Lesion: LUNG); “active; positive” (Species: MOUSE, Strain/Sex: HSD:ICR(BR)/FEMALE, Route: DERMAL, Dose: 0, 50 NMOL IN 50 µL ACETONE 2/WK FOR 99 WK (STUDY DURATION: 99 WK), Tumor Site: Type of Lesion: SKIN: TUMOR); “inactive; negative” (Species: RAT, Strain/Sex: OSBORNE-MENDEL/FEMALE, Route: LUNG IMPLANT, Dose: 0, 0.1, 0.3, 1.0 MG IN BEESWAX/TRICAPRYLIN (STUDY DURATION: LIFETIME), Dose: 0, 0.1, 0.3, 1.0 MG IN BEESWAX/TRICAPRYLIN (STUDY DURATION: LIFETIME)).

Regarding `Cc1c2ccccc2cc2c1ccc1ccccc12`, the carcinogen call by setting is: (Species: MOUSE, Strain/Sex: ALBINO/FEMALE, Route: DERMAL, Dose: 70 UG IN 0.025 ML ACETONE 2/WK FOR 20 WK, Tumor Site: Type of Lesion: INTEGUMENTARY SYSTEM (SKIN): CARCINOMA) “active; positive”; (Species: MOUSE, Strain/Sex: ALBINO/FEMALE, Route: SUBCUTANEOUS, Dose: 0.1 ML OF 1 MG IN TRICAPRYLIN ONCE, Tumor Site: Type of Lesion: INJECTION SITE: SARCOMA) “active; positive”; (Species: MOUSE, Strain/Sex: ALBINO/FEMALE, Route: SUBCUTANEOUS, Dose: 0.25, 1.0 MG IN 0.1 ML TRICAPRYLIN ONCE, Tumor Site: Type of Lesion: INJECTION SITE: SARCOMA) “active; positive”; (Species: MOUSE, Strain/Sex: C57BL/MALE,FEMALE, Route: SUBCUTANEOUS, Dose: 1 MG IN 0.1 ML ARACHIS OIL 1/WK FOR 10 WK, Tumor Site: Type of Lesion: INJECTION SITE) “active; positive”; (Species: RAT, Strain/Sex: ALBINO/MALE, Route: SUBCUTANEOUS, Dose: 2.0 MG IN 0.25 ML TRICAPRYLIN ONCE, Tumor Site: Type of Lesion: INJECTION SITE: SARCOMA) “active; positive”; (Species: RAT, Strain/Sex: F344/MALE,FEMALE, Route: SUBCUTANEOUS, Dose: 2 MG IN 0.2 ML PARAFFIN SOLN (TOTAL DOSE 4 MG/RAT), Tumor Site: Type of Lesion: INJECTION SITE: FIBROSARCOMA) “active; positive”. Also, the carcinogen call (Species: RAT, Strain/Sex: HOLTZMAN/MALE, Route: SUBCUTANEOUS, Dose: 0.25 ML OF 2 MG IN TRICAPRYLIN ONCE, Tumor Site: Type of Lesion: INJECTION SITE: SARCOMA) was “active; positive” and the carcinogen call (Species: RAT, Strain/Sex: LONG-EVANS/MALE, Route: INTRAMUSCULAR, Dose: 2.5 MG IN 0.5 ML SESAME OIL ONCE, Tumor Site: Type of Lesion: INJECTION SITE: SARCOMA) was “active; positive”.
